In assay [1] the target is T1, ALDH1A2 (Homo sapiens, UniProt O94788).
T1 sequence (O94788 1-518): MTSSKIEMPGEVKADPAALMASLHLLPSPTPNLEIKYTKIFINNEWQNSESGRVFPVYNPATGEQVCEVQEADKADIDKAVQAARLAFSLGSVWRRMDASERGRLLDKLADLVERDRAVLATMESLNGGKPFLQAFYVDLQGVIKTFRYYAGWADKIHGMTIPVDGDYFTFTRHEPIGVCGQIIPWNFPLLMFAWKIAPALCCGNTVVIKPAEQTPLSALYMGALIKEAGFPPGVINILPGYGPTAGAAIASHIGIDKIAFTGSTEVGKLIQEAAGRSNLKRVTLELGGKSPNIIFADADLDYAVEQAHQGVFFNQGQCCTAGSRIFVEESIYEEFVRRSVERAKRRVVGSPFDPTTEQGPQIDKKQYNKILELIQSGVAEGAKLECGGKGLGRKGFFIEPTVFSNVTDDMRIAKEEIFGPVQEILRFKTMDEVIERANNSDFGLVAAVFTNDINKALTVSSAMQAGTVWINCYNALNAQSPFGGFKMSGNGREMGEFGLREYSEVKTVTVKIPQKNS
Briefly: Inhibitor screening using purified enzymes: ALDH1A2 activity, retinoic acid production by HPLC (5 uM initial screen, then IC50). In kind it is biochemical. More on the design: histidine-tag (C); made in house; host or cells: bacterial expression (pET28 vector, IPTG induction). The settings on record: purified enzyme. Put shortly: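 Purified His-tagged human enzymes in 10 mM HEPES pH 8.0, 150 mM KCl, 2 mM EDTA with 2 mM NAD, all-trans-retinal substrate; retinoic acid quantified by HPLC. ALDH1A2 initial screen: 1 μg enzyme, 5 μM retinal, 5 μM inhibitor, 15 min, 37° C; IC50 runs: 0.5 μg enzyme, 0.5 μg retinal, 5 min, 37° C.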

Assay [2] has as its target T2, ALDH1A1 (Homo sapiens, UniProt P00352).
T2 sequence (P00352 1-501): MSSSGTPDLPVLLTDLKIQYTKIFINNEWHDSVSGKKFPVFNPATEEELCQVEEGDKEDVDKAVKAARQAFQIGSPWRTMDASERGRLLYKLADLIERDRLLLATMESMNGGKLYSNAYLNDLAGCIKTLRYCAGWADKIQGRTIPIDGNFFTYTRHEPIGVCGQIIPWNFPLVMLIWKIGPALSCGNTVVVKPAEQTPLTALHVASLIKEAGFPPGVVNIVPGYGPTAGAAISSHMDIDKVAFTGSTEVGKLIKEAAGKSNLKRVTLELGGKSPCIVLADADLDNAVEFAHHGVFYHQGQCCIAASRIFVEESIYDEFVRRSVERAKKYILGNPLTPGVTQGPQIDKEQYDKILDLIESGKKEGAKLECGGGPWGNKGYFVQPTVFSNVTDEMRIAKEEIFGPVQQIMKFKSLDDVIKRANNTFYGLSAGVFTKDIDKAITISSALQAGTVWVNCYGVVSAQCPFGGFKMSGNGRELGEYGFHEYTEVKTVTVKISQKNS
Nature of the assay: Inhibitor screening using purified enzymes: ALDH1A1 activity, retinoic acid production by HPLC. In kind it is biochemical. The settings on record: purified enzyme. An excerpt: (§1) ALDHs were cloned into bacterial expression vector for in vitro enzyme assays and into mammalian expression vectors for cell-based enzyme assays. Human ALDH1A1 cDNA and human ALDH2 cDNA were purchased from OriGene (SC321535) and Open Biosystems (MHS4771-99611182), respectively. and human ALDH1A2 cDNA was cloned from human testis RNA using RT-PCR (Population Division of the Department of Economic and Social Affairs of the United Nations Secretariat. World Population prospects: the 2008 revision. Available at http://www.un.org/esa/population/ (Retrieved Sep. 30, 2011)). For bacterial expression, an open reading frame of ALDH1A1 and ALDH2 were subcloned into the pETite vector (Lucigen) with a 5′ histidine-tag and that of ALDH1A2 into a pET28 vector (Novagen) with a 3′ histidine-tag. Correct frame and sequences were verified through DNA sequencing (UW DNA sequencing facility). ALDHs were induced with 1 mM IPTG and purified using His.Bind resin (Novagen, San Diego, Calif.) and stored in a buffer containing 20 mM Hepes (pH 8), 150 mM KCl and 1 mM EDTA as previously described (Fierce, Y., de Morais Vieira, M., Piantedosi, R., Wyss, A., Blaner, W. S., and Paik, J. (2008) In vitro and in vivo characterization of retinoid synthesis from beta-carotene. Archives of biochemistry and biophysics 472, 126-138).
ALDH1A1 and ALDH1A2 activity was determined as previously reported (Beedle M T, Stevison F, Zhong G, Topping T, Hogarth C, Isoherranen N, Griswold M D. Sources of All-Trans Retinal Oxidation Independent of the Aldehyde Dehydrogenase 1A Isozymes Exist in the Postnatal Testis. Biol Reprod. 2018 Sep. 21. doi: 10.1093/biolre/ioy200). Briefly, purified enzymes were incubated in a buffer containing 10 mM HEPES buffer (pH 8.0), 150 mM potassium chloride and 2 mM EDTA with 2 mM NAD. Retinoic acid production was determined using HPLC as previously reported (Amory J K, Muller C H, Shimshoni A J, Isoherranen N, Paik J, Moreb J S, Amory D W, Evanoff R, Goldstein A S, Griswold M D. Suppression of spermatogenesis by bisdichloroacetyldiamines is mediated by inhibition of testicular retinoic acid biosynthesis. Journal of Andrology 2011; 32(1):111-119). Inhibitors were diluted in DMSO and added to the reactions. […] For initial screening of inhibitors for ALDH1A2, 1 μg ALDH1A2, 5 μM all-trans-retinal and 5 μM inhibitors were incubated for 15 min at 37° C. […] For this purpose, 0.5 μg ALDH1A2 and […] were incubated for 5 minutes at 37° C. with varying concentrations of inhibitors. To determine specificity toward ALDH1A2, the IC50 for […]

Assay [3] addresses T2, ALDH1A1. Briefly: Cell-based enzyme assay, retinoic acid production in ALDH1A1/H1299 cells. The conditions noted are these: cell-based. As for the experimental part: (§2) ALDH1A1 cDNA clone was purchased transfection-ready, and ALDH1A2 full-length cDNA was subcloned into pcDNA3, a mammalian expression vector. ALDH1A1 and ALDH1A2 were transfected into H1299 cells (CRL5803, ATCC) using Lipofectamine 3000 (Invitrogen) following the manufacturer's instructions. Stably transfected cells were selected with G418 (1.2 mg/ml) and referred to as ALDH1A1/H1299 and ALDH1A2/H1299. For the cell-based enzyme assays,
(§3) H1299 cells were routinely grown in RPMI-1640 (ATCC) supplemented with 10% fetal bovine serum (Atlanta Biologicals) in a 37 C, 5% CO2, moisture-saturated atmosphere. H1299, ALDH1A1/H1299 and ALDH1A2/H1299 cells were seeded into 12-well plates (1×10^5 cells/well) and grown for 2 days to confluence. Confluent cells were treated for 20 hours in the above media excluding serum with 2 μM all-trans-retinal, and varying concentrations of inhibitors. Serum-free media was used for the treatment period to avoid retinoic acid in serum. Retinoic acid concentrations were determined from cells and media, and specificity of inhibitors was determined by comparing retinoic acid levels in the presence and absence of the inhibitors in ALDH1A1- vs. ALDH1A2-expressing cells.

Assay [4] addresses T1, ALDH1A2. Nature of the assay: Cell-based enzyme assay, retinoic acid production in ALDH1A2/H1299 cells. The settings on record: cell-based. The procedure: as §2, §3
The target of another assay is T3, ALDH2 (Homo sapiens, UniProt P05091).
T3 construct: histidine-tag (N); made in house; host or cells: bacterial expression (pETite vector, IPTG induction)
T3 sequence (P05091 18-517): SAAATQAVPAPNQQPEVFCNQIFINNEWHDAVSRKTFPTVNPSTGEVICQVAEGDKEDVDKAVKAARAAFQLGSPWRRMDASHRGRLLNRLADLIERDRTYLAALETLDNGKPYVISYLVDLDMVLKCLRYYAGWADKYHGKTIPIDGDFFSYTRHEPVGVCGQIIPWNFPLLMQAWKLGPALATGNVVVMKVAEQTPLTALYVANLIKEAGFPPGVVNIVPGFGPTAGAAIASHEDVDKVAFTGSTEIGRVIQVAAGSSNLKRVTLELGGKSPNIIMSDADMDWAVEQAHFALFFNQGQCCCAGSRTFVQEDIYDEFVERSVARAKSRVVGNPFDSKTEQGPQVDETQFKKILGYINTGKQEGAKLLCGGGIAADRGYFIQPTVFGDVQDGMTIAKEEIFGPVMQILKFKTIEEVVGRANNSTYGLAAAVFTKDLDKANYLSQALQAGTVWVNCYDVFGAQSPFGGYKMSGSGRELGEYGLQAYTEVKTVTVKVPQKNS
Nature of the assay: Purified ALDH2 assay with propanal, NADH fluorescence. It is filed as biochemical. The conditions noted are these: purified enzyme.
From the text: as §1, with “126-138). […]” for “126-138).”
For this, 2 μg purified ALDH2, 20 μM propanal and varying concentrations of inhibitors were incubated at room temperature. Enzyme activity was determined by measuring fluorescence of NADH (Ex, 350 nm/Em, 460 nm) using a Victor3 plate reader (PerkinElmer), and initial velocity was calculated from two consecutive readings over 1 minute.

The text below walks through data of patent publication US11548875B2, “Inhibitor compounds for male contraception” (University of Washington, priority 2018, dated 2023).

As for “1-[4-(4-Nitrophenyl)-3-(azocan-1-yl)]piperazin-1-yl](1-methyl-1H-pyrrol-2-yl)methanone [Compound N104]”, the concentration for half-maximal inhibition (IC50) against ALDH1A2 [1] came out at 6.5 µM; against ALDH1A1 [2], 0.141 µM.
“3-{4-[(Difluoroacetyl)amino]phenyl}-1-(4-cyanophenyl)-N-(3-fluorophenyl)-1H-pyrazole-4-carboxamide [Compound 279]”: the EC50 was 0.056 µM at ALDH1A1 [3] and 0.017 µM on ALDH1A2 [4]. The IC50 on ALDH1A2 [1] was found to be 0.61 µM; against ALDH1A1 [2] it was 0.029 µM.
Regarding `O=C(Nc1cccc(F)c1)c1cn(-c2ccccc2)nc1-c1ccc(CBr)cc1` [Compound 8-44, 3-[4-(Bromomethyl)phenyl]-N-(3-fluorophenyl)-1-phenyl-1H-pyrazole-4-carboxamide], the results for the IC50 at ALDH1A2 [1] and against ALDH1A1 [2] were 0.72 µM and 3.9 µM, respectively.
Take `CCN(Cc1nn(-c2ccccc2)cc1C(=O)Nc1cccc(F)c1)C(=O)C(Cl)Cl` [Compound 8-54, 3-{[(Dichloroacetyl)(ethyl)amino]methyl}-N-(3-fluorophenyl)-1-phenyl-1H-pyrazole-4-carboxamide]: the figures for the IC50 on ALDH1A2 [1] and at ALDH1A1 [2] were 3.9 µM and 0.092 µM, respectively.
Take `O=C(Nc1cccc(F)c1)c1cn(-c2ccccc2)nc1-c1ccc(CNC(=O)C(Cl)Cl)cc1` [Compound 8-64, 3-(4-{[(Dichloroacetyl)amino]methyl}phenyl)-N-(3-fluorophenyl)-1-phenyl-1H-pyrazole-4-carboxamide]: the figures for the IC50 against ALDH1A2 [1] and against ALDH1A1 [2] were 0.015 µM and 2 µM, respectively.
For `Cc1ccc(NC(=O)c2cn(-c3ccccc3)nc2-c2ccc(F)cc2)cc1` [Compound 131, 3-(4-Fluorophenyl)-N-(4-methylphenyl)-1-phenyl-1H-pyrazole-4-carboxamide], the IC50 came to 3.02 µM at ALDH1A2 [1], 18.8 µM against ALDH2 and 0.388 µM against ALDH1A1 [2].
For `Cc1ccccc1-c1nn(-c2ccccc2)cc1C(=O)Nc1cccc(F)c1` [Compound 149, N-(3-Fluorophenyl)-3-(2-methylphenyl)-1-phenyl-1H-pyrazole-4-carboxamide] the same measures were 2.15 µM, 4.6 µM and 0.601 µM.
`CCOC(=O)c1cn(-c2ccccc2)nc1-c1ccc(S(C)(=O)=O)cc1` [Compound 232, Ethyl 3-[4-(methylsulfonyl)phenyl]-1-phenyl-1H-pyrazole-4-carboxylate]: the EC50 stood at 0.723 µM on ALDH1A1 [3] and 0.317 µM at ALDH1A2 [4]. For the same compound, at ALDH2, the IC50 is more than 5 µM.
Regarding `CON(C)C(=O)c1ccc(-c2nn(-c3ccc(C#N)cc3)cc2C(=O)Nc2cccc(F)c2)cc1` [Compound 296], the 50% effective concentration (EC50) at ALDH1A1 [3] came out at 0.542 µM; at ALDH1A2 [4], 0.023 µM. The half-inhibitory concentration (IC50) at ALDH1A2 [1] came to 0.15 µM; at ALDH1A1 [2], 9.44 µM.
For `N#Cc1ccc(-n2cc(C(=O)Nc3cccc(F)c3)c(-c3ccc(NC(=O)C(Cl)Cl)cc3)n2)cc1` [Compound 310, 3-{4-[(Dichloroacetyl)amino]phenyl}-1-(4-cyanophenyl)-N-(3-fluorophenyl)-1H-pyrazole-4-carboxamide] the same measures were 0.14 µM, 0.245 µM, 0.065 µM and 0.009 µM.

As usually defined, the IC50 is the midpoint of a concentration-inhibition curve. The term EC50 denotes the midpoint of the concentration-response curve. The low end stands for higher potency in that assay, the high end for lower potency in that assay.
